Source: paper PMC8119899, “A Single Mutation in the Outer Lipid-Facing Helix of a Pentameric Ligand-Gated Ion Channel Affects Channel Function Through a Radially-Propagating Mechanism” (Frontiers in Molecular Biosciences, 2021)
Numbering of substitutions follows the chain as printed.

Tests used:
Type in all cases: cell-based
WT 5-HT3A receptor = molecular target: T1, WT 5-HT3A receptor (Mus musculus, UniProt P23979); experiment: FlexStation membrane potential dye, 5-HT response, WT receptor in HEK293 cells; details: mean and SEM, n ≥ 3
T1 construct: expressed in transfected cells; host or cells: HEK293
T1 sequence (P23979 24-483 isoform P23979-2 limits assumed): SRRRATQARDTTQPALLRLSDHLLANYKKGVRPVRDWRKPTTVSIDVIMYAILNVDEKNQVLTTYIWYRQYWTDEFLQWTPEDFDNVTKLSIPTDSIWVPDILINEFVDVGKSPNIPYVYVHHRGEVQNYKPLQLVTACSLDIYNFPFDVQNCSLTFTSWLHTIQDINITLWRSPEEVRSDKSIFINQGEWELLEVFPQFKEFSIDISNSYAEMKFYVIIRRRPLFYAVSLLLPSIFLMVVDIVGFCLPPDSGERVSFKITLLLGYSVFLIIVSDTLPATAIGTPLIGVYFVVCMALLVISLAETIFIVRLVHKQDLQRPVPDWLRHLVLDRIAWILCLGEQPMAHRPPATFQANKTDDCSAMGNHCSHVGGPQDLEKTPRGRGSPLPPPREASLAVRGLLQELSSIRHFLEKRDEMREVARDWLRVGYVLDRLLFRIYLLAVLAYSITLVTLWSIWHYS
Method: (§1) The mouse 5-HT3A cDNA (Q6J1J7) in pcDNA3.1 (for HEK cell transfection) or pGEMHE (for RNA production) was modified by QuikChange site-directed mutagenesis (Agilent Technologies) to create point mutants (verified by sequencing).
Human embryonic kidney (HEK) 293 cells were maintained at 37 °C at 5% CO2 in a humidified atmosphere, in Dulbecco's Modified Eagle's Medium/Nutrient Mix F12 (1:1) (Invitrogen, Paisley, UK) with GlutaMAX^TM and 10% fetal bovine serum (GE Healthcare) (DMEM/FBS) and passaged when confluent.
(§2) As described previously (Price and Lummis, [2005]) cells were incubated for 45 min with fluorescent membrane potential-sensitive dye (Membrane Potential Blue kit, Molecular Devices) diluted in Flex buffer (10 mM HEPES, 115 mM NaCl, 1 mM KCl, 1 mM CaCl2, 1 mM MgCl2, and 10 mM glucose, pH 7.4), and subsequently assayed at room temperature for 180 s, with readings every 2 s. […] (log of the concentration of ligand), a is the minimum response, b is the maximum response, and nH is the Hill slope.

5-HT3A receptor D238A = molecular target: T2, 5-HT3A receptor D238A (Mus musculus, UniProt P23979, D265A); experiment: Two-electrode voltage clamp, 5-HT response, D238A receptor in Xenopus oocytes; parameters: key: Mutants that did not respond in the functional assay are marked as non functional (NF)
T2 sequence (P23979 24-489 D265A): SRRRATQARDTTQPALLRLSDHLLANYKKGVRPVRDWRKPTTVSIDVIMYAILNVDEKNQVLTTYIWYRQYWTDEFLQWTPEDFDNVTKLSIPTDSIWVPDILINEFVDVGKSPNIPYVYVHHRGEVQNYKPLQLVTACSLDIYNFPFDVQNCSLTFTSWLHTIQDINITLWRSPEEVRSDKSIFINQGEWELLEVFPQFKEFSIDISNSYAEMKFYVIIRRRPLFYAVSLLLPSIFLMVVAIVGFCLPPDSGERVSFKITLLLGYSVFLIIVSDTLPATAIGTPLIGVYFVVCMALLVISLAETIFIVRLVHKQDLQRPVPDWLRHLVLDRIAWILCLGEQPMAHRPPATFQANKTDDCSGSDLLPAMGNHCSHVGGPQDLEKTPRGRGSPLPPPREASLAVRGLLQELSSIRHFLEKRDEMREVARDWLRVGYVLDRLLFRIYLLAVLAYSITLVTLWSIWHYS
Method: as §1
Xenopus laevis oocytes from EcoCyte Biosciences (Austin Texas) were injected with 100 pg cRNA (generated with the ThermoFisher mMESSAGE mMACHINE T7 transcription kit) and left in injection media [88 mM NaCl, 2.4 mM NaHCO3, 1 mM KCl, 0.82 mM MgSO4 ·7H20, 5 mM Tris-HCl, 0.33 mM Ca(NO3)2·4H2O, 0.41 mM CaCl2·2H2O, 2.51 mM sodium pyruvate, 0.12 mg/ml theophylline, 0.05 mg/ml gentamicin, pH 7.5] at 16 °C for 24 h. […] The holding potential was −60 mV, using glass microelectrodes with a resistance of approximately 1 MΩ backfilled with 3M KCl.

5-HT3A receptor K255L = molecular target: T3, 5-HT3A receptor K255L (Mus musculus, UniProt P23979, K282L); experiment: FlexStation membrane potential dye, 5-HT response, K255L receptor in HEK293 cells; parameters: key: Mutants that did not respond in the functional assay are marked as non functional (NF)
T3 construct: expressed in transfected cells
T3 sequence (P23979 24-489 K282L): T2 sequence (P23979 24-489 D265A) with A242D, K259L
Method: as §1
Human embryonic kidney (HEK) 293 cells were maintained at 37 °C at 5% CO2 in a humidified atmosphere, in Dulbecco's Modified Eagle's Medium/Nutrient Mix F12 (1:1) (Invitrogen, Paisley, UK) with GlutaMAX^TM and 10% fetal bovine serum (GE Healthcare) (DMEM/FBS) and passaged when confluent. Five micrograms of WT or mutant 5-HT3A DNA and 30 μl polyethyleneamine (Polysciences) incubated for 10 min in 1 mL DMEM was added to 60% confluent HEK293 cells for transfection, and cells grown for 2 days before assays.
as §2

## NCCc1c[nH]c2ccc(O)cc12 [5-HT]
WT 5-HT3A receptor
  nH (Hill slope): 3.7 ± 0.3
5-HT3A receptor D238A
  pEC50: NF
5-HT3A receptor K255L
  pEC50: NF
